Test results reported in patent publication US20230203029A1 (priority 2020, published 2023).
Like-named read-outs stand apart in the source and are kept apart here.

Tests used:
[1] = molecular target: T1, human MERTK cytoplasmic domain (Homo sapiens, UniProt Q12866); assay: biochemical
T1 construct: human MERTK cytoplasmic domain (Carna Biosciences 08-108); purchased Carna Biosciences 08-108
Experimental: Assay 1a—MERTK HTRF KinEASE-TK Assay
The enzymatic reaction was carried out for 30 min at room temperature. 10 μL TK Antibody-Cryptate/Streptavidin-XL665 (Cisbio 610SAXLG) was then added for 60 min, including EDTA containing detection buffer (Cisbio 62SDBRDF) to stop the reaction.

[2] = molecular target: T2, Ba/F3 Pro B-cell line expressing BCR-human AXL kinase domain fusion protein (Homo sapiens, UniProt P30530); assay: Assay 5 Ba/F3 cell survival assay, BCR-Axl; type: cell-based; conditions: read-out: BCR-Axl Ba/F3 IC50, 48 h, CellTiter-Glo
T2 construct: P11274 (Breakpoint cluster region protein)
T2 sequence (P30530 536-807 limits assumed): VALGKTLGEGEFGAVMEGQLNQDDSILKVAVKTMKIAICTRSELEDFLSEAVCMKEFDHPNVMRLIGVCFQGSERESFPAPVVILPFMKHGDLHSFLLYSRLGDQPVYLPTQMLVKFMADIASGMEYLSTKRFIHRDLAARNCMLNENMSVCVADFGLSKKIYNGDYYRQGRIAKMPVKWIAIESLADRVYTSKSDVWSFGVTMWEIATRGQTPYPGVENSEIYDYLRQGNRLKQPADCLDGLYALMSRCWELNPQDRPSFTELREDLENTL
Experimental: (§1) Assay 5—Ba/F3 Cell Survival Assays.
(§2) The inhibitory potencies of compounds were assessed in a Ba/F3 cell survival assay, using the Ba/F3 Pro B-cell line, recombinantly expressing a BCR-human AXL kinase domain fusion protein (pACD320/AXL, Advanced Cellular Dynamics Inc), TEL-human MERTK fusion domain (pACD1000/MERTK, Advanced Cellular Dynamics Inc), TEL-human Tyro3 fusion domain (pACD1000/TYRO3, Advanced Cellular Dynamics Inc), or control TEL-none (ACD320, Advanced Cellular Dynamics Inc) BRC-none constructs (ACD1000, Advanced Cellular Dynamics Inc). 10 ng/mL recombinant murine IL3 (R&D, 403-ML-010) was included in the media when propagating negative control TEL-none or BCR-none lines only. […] The final assay DMSO concentration was 0.25%. Compound incubations were conducted for 48 h at 37° C./5% CO2, after which cell plate was equilibrated at room temperature for 20 minutes prior to assessing viability. 15 μl of Promega CellTiter-Glo reagent (G7572) was added to each well for 2 min on an orbital shaker to induce cell lysis.
(§3) The plate was then equilibrated for 5 min at room temperature and luminescence read on a BMG Pherastar FSX using the LUM plus optic module. […] Competition curves were then fit to a 4 parameter logistic equation including a variable slope factor to determine the IC50 (compound concentration causing a half-maximal inhibition of cell survival).

[3] = molecular target: T3, Ba/F3 Pro B-cell line expressing TEL-human Tyro3 fusion domain (Homo sapiens, UniProt Q06418); type: cell-based; conditions: cell survival, 48 h, CellTiter-Glo
T3 sequence (Q06418 518-790 limits assumed): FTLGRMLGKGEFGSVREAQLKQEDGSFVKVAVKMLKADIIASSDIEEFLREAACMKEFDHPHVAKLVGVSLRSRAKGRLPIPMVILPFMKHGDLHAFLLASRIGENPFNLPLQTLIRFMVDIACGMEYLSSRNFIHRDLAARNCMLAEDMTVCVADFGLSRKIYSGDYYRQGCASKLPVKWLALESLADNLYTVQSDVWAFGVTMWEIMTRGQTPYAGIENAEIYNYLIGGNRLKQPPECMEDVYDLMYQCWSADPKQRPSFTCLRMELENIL
Experimental: as §1
as §2, with “only. Cells were maintained in RMPI 1640 (Corning 15-040-CV) culture media containing 10% heat inactivated semi-synthetic FBS (RMBIO FGR-BBT), 2 mM L-Glutamine (Sigma, G7513), 100 IU/mL Penicillin-[…] Streptomycin (Sigma, P4333), and 500 ng/mL Puromycin (Sigma, P8833). Experiments were performed in 50 μl growth media, including the test compounds of interest, and dispensing 5000 cells/well in logarithmic-phase growth into a 384 well white Optiplate (Perkin Elmer 6007299).” for “only.”
The plate was then equilibrated for 5 min at room temperature and luminescence read on a BMG Pherastar FSX using the LUM plus optic module. Data were normalised to measurements in the absence of competing compound (0% inhibition). Competition curves were then fit to a 4 parameter logistic equation including a variable slope factor to determine the IC50 (compound concentration causing a half-maximal inhibition of cell survival).

[4] = molecular target: T4, human AXL cytoplasmic domain (Homo sapiens, UniProt P30530); assay: Assay 1b AXL HTRF KinEASE-TK assay; type: biochemical
T4 construct: human AXL cytoplasmic domain (Thermo Fisher A31515); purchased Thermo Fisher A31515
T4 sequence (P30530 473-894 limits assumed): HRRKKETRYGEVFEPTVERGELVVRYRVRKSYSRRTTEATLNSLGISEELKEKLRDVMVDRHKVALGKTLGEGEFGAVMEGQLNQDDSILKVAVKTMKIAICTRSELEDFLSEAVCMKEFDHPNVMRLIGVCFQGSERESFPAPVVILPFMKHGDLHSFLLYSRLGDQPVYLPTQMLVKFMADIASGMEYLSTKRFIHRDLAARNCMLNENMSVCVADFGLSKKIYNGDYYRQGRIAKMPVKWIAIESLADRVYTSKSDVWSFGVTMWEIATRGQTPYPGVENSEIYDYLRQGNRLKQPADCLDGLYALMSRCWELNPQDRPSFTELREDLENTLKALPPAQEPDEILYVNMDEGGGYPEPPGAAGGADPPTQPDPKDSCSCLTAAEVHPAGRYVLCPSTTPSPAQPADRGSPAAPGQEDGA
Experimental: Assay 1b—AXL HTRF KinEASE-TK Assay
Compound inhibition of human AXL cytoplasmic domain (Thermo Fisher A31515) enzymatic activity was tested via the HTRF KinEASE-tyrosine kinase (TK) kit (Cisbio 62TK0PEC). Experiments were performed in 20 μl enzymatic buffer (Cisbio 62EZBFDD) supplemented with 5 mM MgCl2, 1 mM MnCl2, 1 mM DTT, 50 nM SEB (Cisbio, 61SEBALB), with 5 nM of AXL and the test compounds of interest. […] The enzymatic reaction was carried out for 30 min at room temperature. 10 μL TK Antibody-Cryptate/Streptavidin-XL665 (Cisbio 610SAXLG) was then added for 60 min, including EDTA containing detection buffer (Cisbio 62SDBRDF) to stop the reaction. The plate was read on a BMG Pherastar FSX using a HTRF 337/620/665 optical module to excite the terbium donor at 337 nm, and record donor emission at 620 nm and acceptor fluorophore emission at 665 nm. From this the FRET ratio (acceptor 665 nm/donor 620 nm) for each data point was calculated. […] Competition curves were then fit to a 4 parameter logistic equation including a variable slope factor to determine the IC50 (compound concentration that inhibits 50% of AXL activity).

[5] = molecular target: T5, Ba/F3 Pro B-cell line expressing TEL-human MERTK fusion domain (Homo sapiens, UniProt Q12866); type: cell-based
T5 sequence (Q12866 587-858 limits assumed): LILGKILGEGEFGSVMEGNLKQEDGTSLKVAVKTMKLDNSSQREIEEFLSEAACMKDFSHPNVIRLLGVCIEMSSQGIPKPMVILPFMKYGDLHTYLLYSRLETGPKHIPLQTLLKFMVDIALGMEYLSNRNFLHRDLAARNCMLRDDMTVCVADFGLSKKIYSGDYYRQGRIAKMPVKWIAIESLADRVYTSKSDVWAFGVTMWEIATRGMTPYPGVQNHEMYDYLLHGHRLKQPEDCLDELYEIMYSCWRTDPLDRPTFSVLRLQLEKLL
Experimental: as §1, §2, §3

[6] = 30 uM ATP, read-out: Assay 1a Mer IC50 30 uM ATP
[7] = cell survival, 48 h, CellTiter-Glo; read-out: TEL-MERTK Ba/F3 IC50
[8] = read-out: TEL-MERTK Ba/F3 IC50; cell survival, 48 h, CellTiter-Glo

T1 sequence (Q12866 527-999): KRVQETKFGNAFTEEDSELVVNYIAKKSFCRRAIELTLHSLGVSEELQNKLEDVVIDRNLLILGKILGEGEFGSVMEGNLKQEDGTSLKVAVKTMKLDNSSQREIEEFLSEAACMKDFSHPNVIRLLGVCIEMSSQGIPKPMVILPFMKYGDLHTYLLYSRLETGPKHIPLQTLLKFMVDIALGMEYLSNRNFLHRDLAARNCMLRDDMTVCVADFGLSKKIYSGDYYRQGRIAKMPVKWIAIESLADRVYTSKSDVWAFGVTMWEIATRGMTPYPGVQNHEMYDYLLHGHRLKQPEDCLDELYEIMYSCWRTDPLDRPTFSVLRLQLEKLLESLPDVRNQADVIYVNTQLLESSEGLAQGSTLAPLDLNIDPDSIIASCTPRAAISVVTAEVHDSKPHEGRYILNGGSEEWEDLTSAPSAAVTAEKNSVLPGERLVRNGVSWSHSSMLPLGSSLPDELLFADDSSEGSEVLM

Compound	IC50 [1, 6] [nM]	IC50 [4] [nM]	IC50 [2] [nM]	IC50 [3] [nM]	IC50 [5, 7] [nM]	IC50 [1] [nM]	IC50 [5, 8] [nM]
O=C(Nc1ccc(Oc2ccnc3cnc(N4CCN(C5COC5)CC4)cc23)cn1)c1cccn(-c2ccc(F)cc2)c1=O [Example 10.2, 1-(4-fluorophenyl)-N-[5-[[6-[4-(oxetan-3-yl)piperazin-1-yl]-1,7-naphthyridin-4-yl]oxy]-2-pyridyl]-2-oxo-pyridine-3-carboxamide]	2	20	14	394	17	–	–
CC(C)C(=O)N1CCC(c2cc3c(Oc4ccc(NC(=O)c5cccn(-c6ccc(F)cc6)c5=O)nc4)ccnc3cn2)CC1 [Example 22, 1-(4-fluorophenyl)-N-[5-[[6-[1-(2-methylpropanoyl)-4-piperidyl]-1,7-naphthyridin-4-yl]oxy]-2-pyridyl]-2-oxo-pyridine-3-carboxamide]	–	5	10	> 2500	–	1	10
CN1CCC(c2cc3c(Oc4ccc(NC(=O)c5cccn(-c6ccc(F)cc6)c5=O)cc4)ccnc3cn2)CC1 [Example 17, 1-(4-fluorophenyl)-N-[4-[[6-(1-methyl-4-piperidyl)-1,7-naphthyridin-4-yl]oxy]phenyl]-2-oxo-pyridine-3-carboxamide]	4	240	31	186	25	–	–
CC(C)n1cc(C(=O)Nc2ccc(Oc3ccnc4cnc(C(=O)NC5CCN(C)CC5)cc34)cc2)c(=O)n(-c2cc(F)cc(F)c2)c1=O [Example 9.1, 4-[4-[[3-(3,5-difluorophenyl)-1-isopropyl-2,4-dioxo-pyrimidine-5-carbonyl]amino]phenoxy]-N-(1-methyl-4-piperidyl)-1,7-naphthyridine-6-carboxamide]	12	13	25	> 2500	> 2500	–	–
CC(C)(C)OC(=O)N1CCC(c2cc3c(Oc4ccc(NC(=O)c5cccn(-c6ccc(F)cc6)c5=O)nc4)ccnc3cn2)CC1 [Example 16.4, tert-butyl 4-[4-[[6-[[1-(4-fluorophenyl)-2-oxo-pyridine-3-carbonyl]amino]-3-pyridyl]oxy]-1,7-naphthyridin-6-yl]piperidine-1-carboxylate]	13	282	154	> 2500	195	–	–

More lines, main results first:

IC50 [1, 6] [nM]	IC50 [4] [nM]	Compound	IC50 [2] [nM]	IC50 [3] [nM]	IC50 [5, 7] [nM]	IC50 [1] [nM]	IC50 [5, 8] [nM]
4	60	CN1CCN(c2cc3c(Oc4ccc(NC(=O)c5cccn(-c6ccc(F)cc6)c5=O)cc4)ccnc3cn2)CC1 [Example 35, 1-(4-fluorophenyl)-N-[4-[[6-(4-methylpiperazin-1-yl)-1,7-naphthyridin-4-yl]oxy]phenyl]-2-oxo-pyridine-3-carboxamide]	8	116	14	–	–
31	6	CC(C)n1cc(C(=O)Nc2ccc(Oc3ccnc4cnc(C(=O)NCCN(C)C)cc34)cn2)c(=O)n(-c2ccc(F)cc2)c1=O [Example 27.3, N-[2-(dimethylamino)ethyl]-4-[[6-[[3-(4-fluorophenyl)-1-isopropyl-2,4-dioxo-pyrimidine-5-carbonyl]amino]-3-pyridyl]oxy]-1,7-naphthyridine-6-carboxamide]	21	631	44	–	–
57	247	O=C(Nc1ccc(Oc2ccnc3cnc(C4CCNC4)cc23)cn1)c1cccn(-c2ccc(F)cc2)c1=O (stereo not drawn) [Example 21, 1-(4-fluorophenyl)-2-oxo-N-[5-[(6-pyrrolidin-3-yl-1,7-naphthyridin-4-yl)oxy]-2-pyridyl]pyridine-3-carboxamide]	203	2390	217	–	–
–	21	CN1CCC(Oc2cc3c(Oc4ccc(NC(=O)c5cccn(-c6ccc(F)cc6)c5=O)nc4)ccnc3cn2)CC1 [Example 24, 1-(4-fluorophenyl)-N-[5-[[6-[(1-methyl-4-piperidyl)oxy]-1,7-naphthyridin-4-yl]oxy]-2-pyridyl]-2-oxo-pyridine-3-carboxamide]	6	37	–	6	6
